Values of other authors as cited in patent publication US8431165B2, “Medicament for treatment of cancer and other diseases” (Swing Aerobics Licensing, Inc., priority 2004, dated 2013).

Conditions: adult men and women, mean+SD

CC/C=C\C/C=C\C/C=C\CCCCCCCC(=O)O [alpha-linolenic acid]
average estimated conversion of alpha-linolenic acid to docosahexaenoic acid: 3.6±3.8%
average estimated conversion of alpha-linolenic acid to n-3 LC-PUFA metabolites: 17.3±12.8%
